Consider twelve compounds from patent publication US9636338B2, “Phenyl-dihydropyridine derivatives as inhibitors of aldosterone synthase” (Hoffmann-La Roche Inc., priority 2013, dated 2017).

The target in assay [1] is human CYP11B1 (Homo sapiens (Human), UniProt P15538). The assay can be described thus: G-402 cellular enzyme assay, human CYP11B1 (cortisol release, HTRF). To be noted: G-402 cells expressing human CYP11B1; 1 μM Deoxycortisol. Format: cell-based. The text has this:
(§1) Herein we identified the use of the G-402 cell line as a host cell to ectopically express (transiently or stably) enzymes of the CYP11 family. Specifically we developed stable G-402 cells expressing ectopically human CYP11B1, human CYP11B2, human CYP11A1, cynmolgus CYP11B1 or cynomolgus CYP11B2 enzyme activity. Importantly the identified cell line G-402 expresses co-factors (adrenodoxin and adrenodoxin reductase) important for the activity of the CYP11 family and no relevant enzyme activity of the CYP11 family (in comparison to H295R cells) was detected in these cells. Therefore the G-402 cell line is uniquely suited as a host cell for the ectopic expression of enzymes from the CYP11 family. G-402 cells can be obtained from ATCC (CRL-1440) and were originally derived from a renal leiomyoblastoma.
(§2) The expression plasmids contains the ORF for either human/cyno CYP11B1 or CYP11B2 under the control of a suitable promoter (CMV-promoter) and a suitable resistance marker (neomycin). Using standard techniques the expression plasmid is transfected into G-402 cells and these cells are then selected for expressing the given resistance markers. Individual cell-clones are then selected and assessed for displaying the desired enzymatic activity using 11-Deoxycorticosterone (Cyp11B2) or 11-Deoxycortisol (Cyp11B1) as a substrate.
(§3) G-402 cells expressing CYP11 constructs were established as described above and maintained in McCoy's 5a Medium Modified, ATCC Catalog No. 30-2007 containing 10% FCS and 400 μg/ml G418 (Geneticin) at 37° C. under an atmosphere of 5% CO2/95% air. Cellular enzyme assays were performed in DMEM/F12 medium containing 2.5% charcoal treated FCS and appropriate concentration of substrate (0.3-10 uM 11-Deoxycorticosterone, 11-Deoxycortisol or Corticosterone). For assaying enzymatic activity, cells were plated onto 96 well plates and incubated for 16 h. An aliquot of the supernatant is then transferred and analyzed for the concentration of the expected product (Aldosterone for CYP11B2; Cortisol for CYP11B1). The concentrations of these steroids can be determined using HTRF assays from CisBio analyzing either Aldosterone or Cortisol.
(§4) Inhibition of the release of produced steroids can be used as a measure of the respective enzyme inhibition by test compounds added during the cellular enzyme assay. The dose dependent inhibition of enzymatic activity by a compound is calculated by means of plotting added inhibitor concentrations (x-axes) vs. measured steroid/product level (y-axes). The inhibition is then calculated by fitting the following 4-parameter sigmoidal function (Morgan-Mercer-Flodin (MMF) model) to the raw data points using the least squares method:
(§5) [formula] wherein, A is the maximum y value, B is the EC50 factor determined using XLFit, C is the minimum y value and D is the slope value.
(§6) EC50 values for compounds claimed herein were tested with the G402-based assay system described. Cyp11B2 enzyme activity was tested in presence of 1 μM Deoxycorticosterone and variable amounts of inhibitors; Cyp11B1 enzyme activity was tested in presence of 1 μM Deoxycortisol and variable amounts of inhibitors.
Background: TR-FRET usually uses a lanthanide donor and a delayed reading to cut background.

The target in assay [2] is CYP11B2 (Homo sapiens (Human), UniProt P19099). The assay can be described thus: G-402 cellular enzyme assay, human CYP11B2 (aldosterone release, HTRF). Format: cell-based. The following applies: G-402 cells expressing human CYP11B2; 1 μM Deoxycorticosterone.
Sequence of CYP11B2 (P19099 25-503): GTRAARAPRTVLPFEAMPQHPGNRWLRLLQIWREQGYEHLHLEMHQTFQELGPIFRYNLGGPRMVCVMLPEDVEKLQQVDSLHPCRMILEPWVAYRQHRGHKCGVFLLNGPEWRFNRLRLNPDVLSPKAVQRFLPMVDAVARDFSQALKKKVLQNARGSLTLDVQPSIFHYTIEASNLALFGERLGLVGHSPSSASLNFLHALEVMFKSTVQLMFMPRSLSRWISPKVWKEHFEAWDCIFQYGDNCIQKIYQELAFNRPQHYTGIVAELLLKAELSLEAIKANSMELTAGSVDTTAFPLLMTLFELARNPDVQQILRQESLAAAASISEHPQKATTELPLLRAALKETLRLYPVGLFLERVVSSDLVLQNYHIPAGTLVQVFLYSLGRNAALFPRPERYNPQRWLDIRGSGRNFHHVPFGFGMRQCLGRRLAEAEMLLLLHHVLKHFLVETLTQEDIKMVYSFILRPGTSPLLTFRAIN
Description: as §1, §2, §3, §4, §5, §6

Bounds are passed on as bounds.

Sequence of human CYP11B1 (P15538 25-503): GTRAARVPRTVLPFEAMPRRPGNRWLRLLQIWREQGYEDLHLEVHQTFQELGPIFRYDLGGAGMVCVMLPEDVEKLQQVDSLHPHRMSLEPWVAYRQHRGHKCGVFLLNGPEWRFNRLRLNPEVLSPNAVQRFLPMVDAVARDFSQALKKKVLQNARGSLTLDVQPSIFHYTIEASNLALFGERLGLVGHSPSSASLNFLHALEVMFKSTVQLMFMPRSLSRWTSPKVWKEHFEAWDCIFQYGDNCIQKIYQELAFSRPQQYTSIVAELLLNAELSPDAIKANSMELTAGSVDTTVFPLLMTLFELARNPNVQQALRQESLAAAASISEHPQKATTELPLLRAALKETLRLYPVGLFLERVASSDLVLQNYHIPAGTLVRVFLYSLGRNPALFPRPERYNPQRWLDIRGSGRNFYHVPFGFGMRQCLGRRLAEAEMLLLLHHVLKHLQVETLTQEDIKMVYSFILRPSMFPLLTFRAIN

`NC1CCc2cncc(-c3ccc(C(F)(F)F)c(F)c3)c21` (racemic) [Example 1, (rac)-4-(3-Fluoro-4-(trifluoromethyl)phenyl)-6,7-dihydro-5H-cyclopenta[c]pyridin-5-amine]: the EC50 (usually the concentration needed to bring the measured effect to its halfway point) in assay [1] is 5350 nM; in assay [2], 263 nM.

Take `OC1CCc2cncc(-c3ccc(C(F)(F)F)c(F)c3)c21` (racemic) [Example 2, (rac)-4-(3-Fluoro-4-(trifluoromethyl)phenyl)-6,7-dihydro-5H-cyclopenta[c]pyridin-5-ol]: the EC50 in assay [1] was 2340 nM; in assay [2] it was 69 nM.

Take `CC1(O)CCc2cncc(-c3ccc(C(F)(F)F)c(F)c3)c21` (racemic) [Example 3, (rac)-4-(3-Fluoro-4-(trifluoromethyl)phenyl)-5-methyl-6,7-dihydro-5H-cyclopenta[c]pyridin-5-ol]: the 50% effective concentration (EC50) in assay [1] was 2340 nM; in assay [2], 45 nM.

As to `OC1(c2ccccc2)CCc2cncc(-c3ccc(C(F)(F)F)c(F)c3)c21` (racemic) [Example 4, (rac)-4-(3-Fluoro-4-(trifluoromethyl)phenyl)-5-phenyl-6,7-dihydro-5H-cyclopenta[c]pyridin-5-ol], the half-maximal effective concentration (EC50) in assay [1] amounted to 1960 nM; in assay [2], 50 nM.

Turning to `OC1CCc2cncc(-c3ccc(C(F)(F)F)cc3F)c21` (racemic) [Example 5, (rac)-4-[2-Fluoro-4-(trifluoromethyl)phenyl]-6,7-dihydro-5H-cyclopenta[c]pyridin-5-ol], the EC50 in assay [1] is 3330 nM; in assay [2], 133 nM.

Regarding `CC1(O)CCc2cncc(-c3ccc(C(F)(F)F)cc3F)c21` (racemic) [Example 6, (rac)-4-[2-Fluoro-4-(trifluoromethyl)phenyl]-5-methyl-6,7-dihydrocyclopenta[c]pyridin-5-ol], the EC50 in assay [1] is greater than 30000 nM; in assay [2], 739 nM.

With `CC(C)C1(O)CCc2cncc(-c3ccc(C(F)(F)F)cc3F)c21` (racemic) [Example 7, (rac)-4-[2-Fluoro-4-(trifluoromethyl)phenyl]-5-isopropyl-6,7-dihydrocyclopenta[c]pyridin-5-ol], the EC50 was found to be 14400 nM in assay [1] and 740 nM in assay [2].

In the case of `OC1(c2ccccc2)CCc2cncc(-c3ccc(C(F)(F)F)cc3F)c21` (racemic) [Example 8, (rac)-4-[2-Fluoro-4-(trifluoromethyl)phenyl]-5-phenyl-6,7-dihydrocyclopenta[c]pyridin-5-ol], the EC50 in assay [1] worked out at 7380 nM; in assay [2], 33 nM.

On to `CCOC(=O)CC1CCc2cncc(-c3ccc(C(F)(F)F)c(F)c3)c21` (racemic) [Example 11, (rac)-Ethyl 2-[4-[3-fluoro-4-(trifluoromethyl)phenyl]-6,7-dihydro-5H-cyclopenta[c]pyridin-5-yl]acetate], for which the EC50 in assay [1] is 367 nM; in assay [2], 64 nM.

In the case of `CNC(=O)CC1CCc2cncc(-c3ccc(C(F)(F)F)c(F)c3)c21` (racemic) [Example 12, (rac)-2-[4-[3-Fluoro-4-(trifluoromethyl)phenyl]-6,7-dihydro-5H-cyclopenta[c]pyridin-5-yl]-N-methyl-acetamide], the half-maximal effective concentration (EC50) in assay [1] turned out to be 1030 nM; in assay [2], 113 nM.

On to `O=C(CC1CCc2cncc(-c3ccc(C(F)(F)F)c(F)c3)c21)NCC1CC1` (racemic) [Example 13, (rac)-N-(Cyclopropylmethyl)-2-[4-[3-fluoro-4-(trifluoromethyl)phenyl]-6,7-dihydro-5H-cyclopenta[c]pyridin-5-yl]acetamide], for which the EC50 stood at 1150 nM in assay [1] and 60 nM in assay [2].

On to `CCCNC(=O)CC1CCc2cncc(-c3ccc(C(F)(F)F)c(F)c3)c21` (racemic) [Example 14, (rac)-2-[4-[3-Fluoro-4-(trifluoromethyl)phenyl]-6,7-dihydro-5H-cyclopenta[c]pyridin-5-yl]-N-propyl-acetamide], for which the figures for the EC50 in assay [1] and in assay [2] were 2600 nM and 1530 nM, respectively.
